In patent publication US8716475B2, “2-aminopyrimidine modulators of the histamine H4 receptor” (Janssen Pharmaceutica NV, priority 2007, dated 2014):

Molecular target: T1, human H4 receptor (Homo sapiens, UniProt Q9H3N8)
T1 construct: expressed in transfected cells
Assay: Binding Assay on Recombinant Human Histamine H4 Receptor
Settings: [3H] histamine competition binding, membranes of SK-N-MC cells transfected with human H4 receptor, average of results
Experimental: Binding Assay on Recombinant Human Histamine H4 Receptor.
Cell pellets from SK-N-MC cells stably or transiently transfected with human H4 receptor were used for the binding assays. Cell pellets were homogenized in 50 mM Tris/5 mM EDTA buffer and supernatants from an 800g spin were collected and recentrifuged at 30,000g for 30 min. Pellets were rehomogenized in 50 mM Tris/5 mM EDTA buffer. […] Compounds were tested in free base, hydrochloride salt, or trifluoroacetic acid form. Nonspecific binding was defined with 100 μM cold histamine. […] Membranes were harvested by rapid filtration using the 96 well Brandel system or a cell harvester using a Whatman GF/C filter or filter plates treated with 0.5% polyethylenimine (PEI), and washed 4 times with ice-cold 50 mM Tris/5 mM EDTA buffer. Filters were then dried, mixed with scintillant and radioactive counts were determined. […] Data marked with an asterisk (*) were obtained by the cell harvester method. Where activity is shown as greater than (>) a particular value, the value is the highest concentration tested.

T1 sequence (Q9H3N8 whole entry): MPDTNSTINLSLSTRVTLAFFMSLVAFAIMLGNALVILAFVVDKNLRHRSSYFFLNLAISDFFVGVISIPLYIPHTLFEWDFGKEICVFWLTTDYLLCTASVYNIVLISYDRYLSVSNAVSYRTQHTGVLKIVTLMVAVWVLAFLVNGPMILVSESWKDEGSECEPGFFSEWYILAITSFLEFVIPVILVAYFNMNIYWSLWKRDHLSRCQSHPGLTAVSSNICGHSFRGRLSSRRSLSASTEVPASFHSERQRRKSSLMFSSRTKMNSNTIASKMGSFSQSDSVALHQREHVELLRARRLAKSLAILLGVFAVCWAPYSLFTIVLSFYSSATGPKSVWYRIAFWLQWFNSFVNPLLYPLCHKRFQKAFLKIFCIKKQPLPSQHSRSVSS

Molecule	Ki (Table 1)	Ki (Table 2)
4-(4-piperazin-1-yl)-5,6,7,8-tetrahydro-quinazolin-2-ylamine [Example 67]	17 nM	
Nc1nc(C2CCCC2)cc(N2CCC3(CCCN3)C2)n1 (racemic) [Example 84, 4-Cyclopentyl-6-(cis-1,7-diaza-spiro[4.4]non-7-yl)-pyrimidin-2-ylamine]		11 nM
Nc1nc(C2CCCC2)cc(N2CC3NCCOC3C2)n1 (single isomer, unassigned) [Example 86, 4-Cyclopentyl-6-(trans-hexahydro-pyrrolo[3,4-b][1,4]oxazin-6-yl)-pyrimidin-2-ylamine]		56 nM
Nc1nc(C2CCCC2)cc(N2CC3NCCOC3C2)n1 (single isomer, unassigned) [Example 88, 4-Cyclopentyl-6-(cis-hexahydro-pyrrolo[3,4-b][1,4]oxazin-6-yl)-pyrimidin-2-ylamine]		520 nM
CC(C)c1cc(N2CC3NCCOC3C2)nc(N)n1 (single isomer, unassigned) [Example 93, 4-(cis-Hexahydro-pyrrolo[3,4-b][1,4]oxazin-6-yl)-6-isopropyl-pyrimidin-2-ylamine]		481 nM
CC(C)c1cc(N2CC3NCCOC3C2)nc(N)n1 (single isomer, unassigned) [Example 94, 4-(trans-Hexahydro-pyrrolo[3,4-b][1,4]oxazin-6-yl)-6-isopropyl-pyrimidin-2-ylamine]		497 nM
CN[C@@H]1CCN(c2cc(C3CC3c3ccccc3)nc(N)n2)C1 (single isomer, unassigned) [Example 255]		34 nM
CN[C@@H]1CCN(c2cc(C3CC3c3ccccc3)nc(N)n2)C1 (single isomer, unassigned) [Example 256]		5 nM
Nc1nc(C2CCCC2)cc(N2CCC3(CCCN3)C2)n1 (single isomer, unassigned) [Example 257, 4-Cyclopentyl-6-(cis-1,7-diaza-spiro[4.4]non-7-yl)-pyrimidin-2-ylamine]		31 nM
Nc1nc(C2CCCC2)cc(N2CCC3(CCCN3)C2)n1 (single isomer, unassigned) [Example 258, 4-Cyclopentyl-6-(cis-1,7-diaza-spiro[4.4]non-7-yl)-pyrimidin-2-ylamine]		34 nM
Nc1nc(C2CCOC2)cc(N2CCNCC2)n1 (single isomer, unassigned; (+)) [Example 194, (+)-4-piperazin-1-yl-6-(tetrahydro-furan-3-yl)-pyrimidin-2-ylamine]		49 nM
Nc1nc(C2CCOC2)cc(N2CCNCC2)n1 (single isomer, unassigned; (-)) [Example 193, (−)-4-piperazin-1-yl-6-(tetrahydro-furan-3-yl)-pyrimidin-2-ylamine]		31 nM
Nc1nc(C2CC2c2ccccc2)cc(N2CC[C@@H](N)C2)n1 (stereo in doubt) [Example 157, (R)-4-(3-Amino-pyrrolidin-1-yl)-6-(trans-2-phenyl-cyclopropyl)-pyrimidin-2-ylamine]		29 nM
CN[C@@H]1CCN(c2cc(C3CC3c3ccccc3)nc(N)n2)C1 (stereo in doubt) [Example 160, (R)-4-(3-Methylamino-pyrrolidin-1-yl)-6-(trans-2-phenyl-cyclopropyl)-pyrimidin-2-ylamine]		3 nM
COCc1cc(N2CCCC(N)C2)nc(N)n1 (stereo in doubt) [Example 225, (R)-4-(3-Amino-piperidin-1-yl)-6-methoxymethyl-pyrimidin-2-ylamine]		464 nM
Nc1nc(C2CCCC2)cc(N2CCNCC2)n1 [Example 1, 4-Cyclopentyl-6-piperazin-1-yl-pyrimidin-2-ylamine]	1 nM	
CN1CCN(c2cc(C3CCCC3)nc(N)n2)CC1 [Example 2, 4-Cyclopentyl-6-(4-methyl-piperazin-1-yl)-pyrimidin-2-ylamine]	1 nM	
Nc1nc(C2CCCC2)cc(N2CCC[C@@H](N)C2)n1 [Example 3, (R)-4-(3-Amino-piperidin-1-yl)-6-cyclopentyl-pyrimidin-2-ylamine]	257 nM	
CN[C@@H]1CCN(c2cc(C3CCCC3)nc(N)n2)C1 [Example 4, (R)-4-Cyclopentyl-6-(3-methylamino-pyrrolidin-1-yl)-pyrimidin-2-ylamine]	1 nM	
CNC1CN(c2cc(C3CCCC3)nc(N)n2)CC1O (stereo not drawn) [Example 5, trans-1-(2-Amino-6-cyclopentyl-pyrimidin-4-yl)-4-methylamino-pyrrolidin-3-ol]	30 nM	
Nc1nc(C2CCCC2)cc(N2CC3CCNC3C2)n1 (stereo not drawn) [Example 6, 4-Cyclopentyl-6-(cis-hexahydro-pyrrolo[3,4-b]pyrrol-5-yl)-pyrimidin-2-ylamine]	6 nM	
Nc1nc(C2CCCC2)cc(N2CC3CCCNC3C2)n1 (stereo not drawn) [Example 7, 4-Cyclopentyl-6-(cis-octahydro-pyrrolo[3,4-b]pyridin-6-yl)-pyrimidin-2-ylamine]	2 nM	
CC(C)c1cc(N2CCNCC2)nc(N)n1 [Example 8, 4-Isopropyl-6-piperazin-1-yl-pyrimidin-2-ylamine]	3 nM	

Molecule	Ki (Table 1)	Ki (Table 2)
CC(C)c1cc(N2CCC[C@@H](N)C2)nc(N)n1 [Example 9, (R)-4-(3-Amino-piperidin-1-yl)-6-isopropyl-pyrimidin-2-ylamine]	820 nM	
CC(C)c1cc(N2CCC[C@H](N)C2)nc(N)n1 [Example 10, (S)-4-(3-Amino-piperidin-1-yl)-6-isopropyl-pyrimidin-2-ylamine]	159 nM	
CN[C@@H]1CCN(c2cc(C(C)C)nc(N)n2)C1 [Example 11, (R)-4-Isopropyl-6-(3-methylamino-pyrrolidin-1-yl)-pyrimidin-2-ylamine]	12 nM	
CC(C)c1cc(N2CC[C@@H](N)C2)nc(N)n1 [Example 12, (R)-4-(3-Amino-pyrrolidin-1-yl)-6-isopropyl-pyrimidin-2-ylamine]	18 nM	
CNC1CN(c2cc(C(C)C)nc(N)n2)CC1O (stereo not drawn) [Example 13, trans-1-(2-Amino-6-isopropyl-pyrimidin-4-yl)-4-methylamino-pyrrolidin-3-ol]	631 nM	
CC(C)c1cc(N2C[C@@H]3C[C@H]2CN3)nc(N)n1 [Example 14, (S,S)-4-(2,5-Diaza-bicyclo[2.2.1]hept-2-yl)-6-isopropyl-pyrimidin-2-ylamine]	673 nM	
CC(C)c1cc(N2C[C@H]3C[C@@H]2CN3)nc(N)n1 [Example 15, (R,R)-4-(2,5-Diaza-bicyclo[2.2.1]hept-2-yl)-6-isopropyl-pyrimidin-2-ylamine]	692 nM	
CC(C)c1cc(N2CC3CCNC3C2)nc(N)n1 (stereo not drawn) [Example 16, 4-(cis-Hexahydro-pyrrolo[3,4-b]pyrrol-5-yl)-6-isopropyl-pyrimidin-2-ylamine]	65 nM	
CC(C)c1cc(N2C[C@H]3CCN[C@H]3C2)nc(N)n1 [Example 17, (R,R)-4-(Hexahydro-pyrrolo[3,4-b]pyrrol-5-yl)-6-isopropyl-pyrimidin-2-ylamine]	59 nM	
CC(C)c1cc(N2C[C@H]3CN(C)C[C@H]3C2)nc(N)n1 [Example 18, 4-Isopropyl-6-(cis-5-methyl-hexahydro-pyrrolo[3,4-c]pyrrol-2-yl)-pyrimidin-2-ylamine]	17 nM	
CC(C)c1cc(N2CC3CCCNC3C2)nc(N)n1 (stereo not drawn) [Example 19, 4-Isopropyl-6-(cis-octahydro-pyrrolo[3,4-b]pyridin-6-yl)-pyrimidin-2-ylamine]	8 nM	
CC(C)c1cc(N2C[C@H]3CCCN[C@H]3C2)nc(N)n1 [Example 20, (R,R)-4-Isopropyl-6-(cis-octahydro-pyrrolo[3,4-b]pyridin-6-yl)-pyrimidin-2-ylamine]	18 nM	
Cc1cc(N2CCNCC2)nc(N)n1 [Example 21, 4-Methyl-6-piperazin-1-yl-pyrimidin-2-ylamine]	29 nM	
Cc1cc(N2CCN(C)CC2)nc(N)n1 [Example 22, 4-Methyl-6-(4-methyl-piperazin-1-yl)-pyrimidin-2-ylamine]	18 nM	
CN[C@@H]1CCN(c2cc(C)nc(N)n2)C1 [Example 23, (R)-4-Methyl-6-(3-methylamino-pyrrolidin-1-yl)-pyrimidin-2-ylamine]	77 nM	
Cc1cc(N2CC3CCCNC3C2)nc(N)n1 (stereo not drawn) [Example 24, 4-Methyl-6-(cis-octahydro-pyrrolo[3,4-b]pyridin-6-yl)-pyrimidin-2-ylamine]	49 nM	
Cc1nc(N)nc(N2CCNCC2)c1C [Example 25, 4,5-Dimethyl-6-piperazin-1-yl-pyrimidin-2-ylamine]	286 nM	
Cc1nc(N)nc(N2CCN(C)CC2)c1C [Example 26, 4,5-Dimethyl-6-(4-methyl-piperazin-1-yl)-pyrimidin-2-ylamine]	177 nM	
Cc1nc(N)nc(N2CC[C@@H](N)C2)c1C [Example 27, (R)-4-(3-Amino-pyrrolidin-1-yl)-5,6-dimethyl-pyrimidin-2-ylamine]	> 10000 nM	
CN[C@@H]1CCN(c2nc(N)nc(C)c2C)C1 [Example 28, (R)-4,5-Dimethyl-6-(3-methylamino-pyrrolidin-1-yl)-pyrimidin-2-ylamine]	357 nM	
Cc1nc(N)nc(N2CC3CCNC3C2)c1C (stereo not drawn) [Example 29, 4-(cis-Hexahydro-pyrrolo[3,4-b]pyrrol-5-yl)-5,6-dimethyl-pyrimidin-2-ylamine]	> 10000 nM	
Cc1nc(N)nc(N2C[C@H]3CN(C)C[C@H]3C2)c1C [Example 30, 4,5-Dimethyl-6-(cis-5-methyl-hexahydro-pyrrolo[3,4-c]pyrrol-2-yl)-pyrimidin-2-ylamine]	530 nM	
Cc1nc(N)nc(N2CC3CCCNC3C2)c1C (stereo not drawn) [Example 31, 4,5-Dimethyl-6-(cis-octahydro-pyrrolo[3,4-b]pyridin-6-yl)-pyrimidin-2-ylamine]	249 nM	
